≈ marks a conversion by molar mass, not a printed value. Where a name gives a salt, the structure may show the parent alone. Read-outs that look alike come from different tables or passages of the source.

A short description of data set [1]: acute toxicity (LD50) in mice. The settings on record: mouse, in vivo. The method, then: The LD50 value of D-glucaro-δ-lactam sodium salt in mice is not less than 3 g/kg by the intraveous injection and not less than 5 g/kg by the oral administration. The LD50 value of D-glucaro-δ-lactam methyl ester in mice is not less than 5 g/kg by the intraveous injection and not less than 10 g/kg by the oral administration. With respect to 6-O-triphenylmethyl-D-gluco-δ-lactam, the LD50 value is not less than 300 mg/kg in case of the subcutaneous administration in mice.

The subject of data set [2] is AIDS patients. The conditions noted are these: in words, cited from earlier work.
The test system of data set [3] is HIV. The data set is described as follows: in vitro anti-HIV activity: decrease in the cytocidal effect of HIV on MT-2 cells. The data set is classed as cell-based. The settings on record: for EC50: Human immunodeficiency virus 1, MT2, 168 h, read-out: EC50 (concentration giving a 50% decrease in the cytocidal effect of HIV); for TI50 (IC50/EC50): ratio IC50/EC50, 10080 min. The method, then: (§1) Namely, the host human T-lymphotropic MT-2 cell line is transplanted on a microtiter plate and a series of dilutions of the test compounds shown in the table below are added with or without addition of HIV, followed by incubation for 7 days. For evaluation, the residual viable cell count is then determined by colorimetry.
(§2) In the above table, EC50 means the concentration of the test compound giving a 50% decrease in the cytocidal effect of HIV and IC50 means the concentration of the test compound giving a 50% inhibition of growth of normal non-infected cells.

A short description of data set [4]: inhibition of growth of normal non-infected cells (MT-2). The data set is classed as cell-based, human. The settings on record: human; MT-2 cells without HIV, 7 days, viable cell count by colorimetry; read-out: IC50 (concentration giving a 50% inhibition of growth of normal non-infected cells). The method, then: as §1, §2
Data set [5] deals with human T-lymphotropic MT-2 cell line. The description is as above. The conditions noted are these: Homo sapiens, MT2, 168 h; MT-2 cells without HIV, 7 days, viable cell count by colorimetry; read-out: IC50 (concentration giving a 50% inhibition of growth of normal non-infected cells). The data set is classed as cell-based. The method, then:
as §1, §2

The LD50 is the dose expected to kill half of the subjects tested. High values mean a less toxic substance, low ones a more toxic substance. For the compound `COC(=O)[C@H]1NC(=O)[C@H](O)[C@@H](O)[C@@H]1O` [D-glucaro-δ-lactam methyl ester], the LD50 in data set [1] (intravenous injection) is at least 5000 mg/kg; in data set [1] (oral administration) it was at least 10000 mg/kg.
For `Cc1cn([C@H]2C[C@H](N=[N+]=[N-])[C@@H](CO)O2)c(=O)[nH]c1=O` [azidothymidine (AZT), azidothymidine], the “side effects in clinical application” value in data set [2] (listed as AZT) was “side effects of AZT on bone marrow”; in data set [2], “serious side effects such as bone marrow depression, anemia and neurologic disorders such as headache and convulsion”.
Turning to `O=C1N[C@H](COC(c2ccccc2)(c2ccccc2)c2ccccc2)[C@@H](O)[C@H](O)[C@H]1O` [6-O-triphenylmethyl-D-gluco-δ-lactam], in data set [3], the EC50 stood at 0.0386 ng/mL (≈ 9.2e-05 µM) and the “TI50 (IC50/EC50)” value is 8.19 × 10^5. In addition, the CC50 at 168 h in data set [4] stood at 31.7 µg/mL (≈ 75.6 µM). Further, in data set [1] (sc, subcutaneous administration), the LD50 is at least 300 mg/kg.
For `O=C(O)[C@H]1NC(=O)[C@H](O)[C@@H](O)[C@@H]1O` [D-glucaro-δ-lactam sodium salt], the LD50 was at least 3000 mg/kg in data set [1] (intravenous injection) and at least 5000 mg/kg in data set [1] (oral administration).
`O=C(O)[C@H]1NC(=O)[C@H](O)[C@@H](O)[C@@H]1O` [D-glucaro-δ-lactam calcium salt]: in data set [3] (MT-2 cells, with HIV, 7 days, viable cell count by colorimetry), the EC50 was below 0.25 ng/mL. Moreover, the “TI50 (IC50/EC50)” value in data set [3] is > 1.00 × 10^6. The IC50 in data set [5] is above 250 µg/mL.
